Experimental data from patent US11319305B2, “Pyrimidine sulfamide derivative and preparation method and medical application thereof” (SHIJIAZHUANG SAGACITY NEW DRUG DEVELOPMENT CO., LTD., priority 2017, dated 2022).

Target: T1, Human Pregnane X Receptor (PXR) (Homo sapiens, UniProt O75469)
T1 construct: host or cells: DPX2 cells
T1 sequence (O75469 1-434): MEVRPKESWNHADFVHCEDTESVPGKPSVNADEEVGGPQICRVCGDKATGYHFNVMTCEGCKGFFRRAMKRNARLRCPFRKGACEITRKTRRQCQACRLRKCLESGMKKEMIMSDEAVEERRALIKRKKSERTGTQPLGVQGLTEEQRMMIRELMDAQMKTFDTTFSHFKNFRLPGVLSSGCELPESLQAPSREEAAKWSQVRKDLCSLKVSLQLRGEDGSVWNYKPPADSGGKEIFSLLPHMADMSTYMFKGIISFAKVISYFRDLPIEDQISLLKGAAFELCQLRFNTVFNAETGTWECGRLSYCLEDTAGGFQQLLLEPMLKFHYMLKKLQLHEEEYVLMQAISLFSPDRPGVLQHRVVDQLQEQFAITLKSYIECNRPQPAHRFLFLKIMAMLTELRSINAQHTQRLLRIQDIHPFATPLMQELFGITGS
Assay: Human pregnane X receptor (PXR) assay, induction of PXR-mediated CYP3A expression in DPX2 cells
Type: cell-based
Description: Experimental Embodiment 3: Human Pregnane X Receptor (PXR) Assay
The effect of the compounds on the induction of PXR-mediated CYP3A expression was evaluated.
1. DPX2 cells were thawn under sterile conditions.
2. DPX2 cell solution was distributed in 96-well plate (100 μL/well), and the plate was placed in a 5% CO2/37° C. incubator overnight.
3. Quantitative feeding medium was thawn in a 37° C. water bath. Positive control rifampin was thawn at room temperature. A series of test compounds and positive control dilutions were prepared in quantitative feeding medium. The cells were carefully aspirated from each wells without disturbing the cells during aspiration and the medium was discarded. 100 μL of each test compound concentration was transferred to pre-labeled wells. The operation of the positive control group and the blank group were the same. The plate was placed back into the incubator for 24 hours exposure.
(1) 7 μL of Luciferin-IPA was added to […] feeding medium, the mixture was mixed by inverting, and poured into a Luciferin-IPA reagent tank.
(2) The 96-well plate was taken out from the incubator, and the media was carefully aspirated from each wells. 50 μL of the Luciferin-IPA reagent was added to each wells, and the cell plate was placed back into the incubator for 60 minutes.
(3) During incubation, the P450-Glo buffer was poured into the Luciferin detection reagent, and the mixture was mixed by inverting.
(4) The 96-well plate was taken out from the incubator, and 40 μL of solution from each well was transferred into the corresponding white 96-well plate, and the corresponding position of each wells was consistent with the original cell plate. […]
(8) After incubation with Luciferin detection reagent for 20 minutes, a photometer (set 1-5 seconds. Readout Time) was used to measure the luminescence of each wells of the white 96-well plate. […]
(10) After incubating for 60 minutes at 37° C., the original 96-well plate was taken out of the incubator. The reader was set to the fluorescence mode, the excitation wavelength was set to 380-400 nm, the emission wavelength was set to 505 nm, and the fluorescence intensity of each wells was measured.
(11) The cell plate was taken out of the enzyme reader, and 100 μL of ONE-Glo™ detection reagent was added to each wells. […]
(12) The enzyme reader was set to 5 seconds for pre-shaking and 5 seconds for wells reading, and the fluorescence intensity in each hole was measured. […]
The positive control was rifampicin, six concentrations were tested in each experiment. The data was analyzed using Prism to generate a concentration-response curve and the EC50 value of the compound was calculated.

induction effect on PXR-mediated CYP3A expression (in words): relatively weak induction effect
EC50 (DPX2 cells, 24 hours exposure, ± is calculation error of simulation curve, read-out: EC50, induction effect on PXR-mediated CYP3A expression): 27.6 ± 1.33 µM
Compound: COCCNS(=O)(=O)Nc1ncnc(OCCOc2ncc(Br)cn2)c1-c1ccc2c(c1)OCO2 [WX013]
